Source: patent publication US20240271127A1, “METHODS OF ENHANCING AND EXPEDITING EXPRESSION OF ANTIBODIES” (Aridis Pharmaceuticals, Inc., priority 2019, published 2024)

Test system: UPR pathway in CHO-K1 cell line expressing Ire1-1642G and Fv2E-PERK
Assay: Drug-inducible UPR pathway activation, RT-qPCR of UPR gene mRNA transcripts
Assay type: cell-based, Chinese hamster
Conditions: CHO-K1 transfected with Ire1-1642G and Fv2E-PERK in combination; 1NM-PP1 0, 10 or 50 μM added 24 hours post-transfection
Protocol: In FIG. 12A drug-inducible activation of UPR pathway promotes ER expansion signaling pathways in a dosage-dependent manner. […] At 24 hours post-transfection, cells were treated with varying concentrations of 1NM-PP1 (0, 10, or 50 μM). mRNA transcripts of UPR genes were measured by RT-qPCR of unspliced Xbp1 (Xbp1u), spliced Xbp1 (Xbp1s), Chop, Gadd34, and Atf4. […]
Reverse transcription real-time quantitative polymerase chain reaction (RT-qPCR). […] Quantification was by standard ddCt method.
1NM-PP1 drug induction in CHO cells: Stable CHO cell lines expressing Ire1a 1642G or Fv2E-PERK alone or in combination were induced with 10 or 50 µM of 1NM-PP1. Gene expression measured by RT-qPCR was performed at 24h post-drug induction.
A drug inducible UPR activation pathway was constructed in a CHO-K1 cell line transfected with plasmid containing constitutive promoter expressing Ire1-1642G or Fv2E-PERK alone or in combination. At 24 hours post-transfection, cells were treated with varying concentrations of 1NM-PP1 (0, 10 or 50 μM). mRNA transcripts of UPR genes were measured by RT-qPCR of unspliced Xbp1 (Xbp1u), spliced Xbp1 (Xbp1s), Chop, Gadd34, and Atf4.

**Q.** CC(C)(C)n1nc(Cc2cccc3ccccc23)c2c(N)ncnc21 [1NM-PP1] was tested. Which “mRNA transcripts of UPR genes Xbp1u, CHOP, Gadd34 and Atf4 (RT-qPCR)” value did it give?
**A.** increased at higher concentrations
